These results are taken from patent US6264974A, “Buccal and sublingual administration of physostigmine” (priority 1998, dated 2001).

Molecules are shown by their SMILES. Entries after “also recorded” stand apart in the source; their conditions may differ.

This data set is described as follows: Intravenous and buccal pharmacokinetics of Physostigmine in rats (plasma levels by HPLC with fluorimetric detector). The class given is in vivo, male Lewis rats. The note with it: rat plasma, 200 μg/kg, Physostigmine hemisulfate in normal saline. As to the method:
Lewis Rats were used to evaluate the buccal/sublingual delivery of Physostigmine. The Physostigmine drug concentration in rat plasma was determined using a conventional high pressure liquid chromatography analytical procedure which measures drug concentration by fluorimetric detector.
To determine whether Physostigmine would be absorbed by mucosa and produce a sustained plasma level, two separate groups of male Lewis rats, were administered Physostigmine hemisulfate, a salt of Physostigmine, intravenously or buccally in normal saline. The rats weighed approximately 300 g and were fasted overnight prior to dosing. All rats were anesthetized with pentobarbital (50 mg/kg) prior to dosing. The jugular vein was cannulated and attached to a syringe through 3-way stopcock for blood collections. Blood samples (1 ml) were withdrawn through the jugular cannula and replaced with an equal volume of fresh blood (37 degrees C) from separate blood donor rats after each sampling as a function of time. […]
The terminal decay rate constant (k) and the terminal half-life (t1/2) after intravenous administration was calculated by linear regression of the terminal portion of the individual sample In Cp (plasma drug concentration) versus time plot of FIG. 1.

For `CNC(=O)Oc1ccc2c(c1)[C@]1(C)CCN(C)[C@@H]1N2C` [Physostigmine, 1,2,3,3a,8,8a-hexahydro-1,3a,8-trimethylpyrrolo[2,3-b]indol-5-ol methylcarbamate], the half-life (0.2 mg/kg, intravenous, FIG. 1, read-out: plasma half-life (terminal half-life, t1/2)) was 25 min. Also, the “plasma concentration vs. time profile” value (buccal, esophagus ligated, over eight hours (t1/2 could not be determined), FIG. 2) is given as “did not decay for the period of the experiment; also recorded: highly sustained”.
